Counter-ions that a name gives are not always drawn.
How the values were obtained:
in vitro = type: cell-based, human; settings: human, HEK293T Viability at 30 µM [%]
Procedure: Cytotoxic effects of test compounds on eukaryotic cells were investigated using a HEK293T cell viability assay. First, the cell density of a HEK293T culture was determined. […] The supernatant was then aspirated and fresh culture medium was added to 200 μL into which the test compounds were previously added. All substances were previously dissolved in DMSO. […] The viability of the cells was then examined by adding PrestoBlue® Cell Viability Agent (Invitrogen, Carlsbad, CA, USA). The supernatant was removed, 10% PrestoBlue® was added in preheated PBS and the culture was incubated for 30 min at 37 °C. In cells with an active metabolism, the PrestoBlue dye is reduced, causing it to fluorescence. The fluorescence (λex = 560 nm, λem = 590 nm) was measured in an EnVision Multilable Plate Reader (Perkin Elmer, Waltham, MA, USA; integration time 0.1 sec/well).

rPfGSK-3 = rPfGSK-3 (Plasmodium falciparum, UniProt O77344); assay: KinaseGlo Plus assay for inhibition of PfGSK-3; type: biochemical; settings: 10 µM; remaining activity, calculated on DMSO controls; Table 3; read-out: rPfGSK-3 Activity at 10 µM [%]
[1] = test system: erythrocytic forms of P. falciparum (strain 3D7); assay: Viability screening of antiplasmodial activity (SYBR-gold DNA quantification, 96 h); type: cell-based, Plasmodium falciparum; settings: for activity at 0.3 µM / activity at 3 µM / IC50: Plasmodium falciparum; for activity at 0.3 µM / activity at 3 µM: 96 h, strain 3D7, calculated on DMSO controls; for activity at 0.3 µM: read-out: Parasitemia (3D7) at 0.3 µM [%]; for activity at 3 µM: read-out: Parasitemia (3D7) at 3 µM [%]; for SI (Selectivity index for 3D7 erythrocytic forms versus HEK293 cells): 3D7 versus HEK293 cells; for IC50: 3D7, strain 3D7, erythrocytic forms

Chain of rPfGSK-3 (O77344 entry or part of it): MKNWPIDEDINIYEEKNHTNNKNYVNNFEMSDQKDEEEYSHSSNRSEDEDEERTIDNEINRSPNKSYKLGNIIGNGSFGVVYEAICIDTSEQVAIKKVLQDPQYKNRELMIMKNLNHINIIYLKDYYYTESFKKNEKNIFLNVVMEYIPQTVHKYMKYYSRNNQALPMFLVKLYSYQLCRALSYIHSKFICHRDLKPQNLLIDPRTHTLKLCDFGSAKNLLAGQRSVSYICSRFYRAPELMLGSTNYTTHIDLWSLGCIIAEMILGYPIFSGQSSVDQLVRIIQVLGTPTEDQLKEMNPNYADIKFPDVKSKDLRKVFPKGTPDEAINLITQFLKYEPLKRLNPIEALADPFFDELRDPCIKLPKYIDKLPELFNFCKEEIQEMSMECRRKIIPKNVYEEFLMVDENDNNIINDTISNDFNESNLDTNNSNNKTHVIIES

Compound	viability at 48 h, 30 µM (in vitro) [%]	remaining activity at 10 µM (rPfGSK-3) [%]	antiplasmodial activity at the concentration investigated (in words) ([1]; 3 µM)	activity at 0.3 µM [1] [%]	activity at 3 µM ([1]; 3 µM) [%]	SI (Selectivity index for 3D7 erythrocytic forms versus HEK293 cells) [1]	IC50 [1] [nM]	IC50 (3D7) [nM] ([1]; strain 3D7, erythrocytic forms)
Cc1cccc(-c2c(C(=O)O)c(C)nc3sc(C(=O)Nc4ccc(Cl)cc4)c(N)c23)c1 [Compound 17i, 3-Amino-2-[(4-chlorophenyl)carbamoyl]-6-methyl-4-(3-methylphenyl)thieno[2,3-b]pyridine-5-carboxylic acid]	87.6 ± 19.6	106 ± 8	only low	99.8 ± 18.8	62.4 ± 21.5			
CC(C)(C)OC(=O)N1CCN(c2ccc(-c3c4c(nc5sc(C(=O)Nc6ccc(Cl)cc6)c(N)c35)CCCC4)c(Cl)c2)CC1 [Compound 17k, tert-Butyl 4-(4-{3-amino-2-[(4-chlorophenyl)carbamoyl]-5,6,7,8-tetrahydrothieno[2,3-b]quinolin-4-yl}-3-chlorophenyl)piperazine-1-carboxylate]	84.3 ± 14.3	106 ± 18.7		30 ± 24.9	2.6 ± 9			
CC(C)(C)OC(=O)N1CCN(c2ccc(-c3c(C#N)c(N)nc4sc(C(=O)Nc5cccc(Cl)c5)c(N)c34)c(Cl)c2)CC1 [Compound 9p, tert-Butyl 4-(3-chloro-4-{3,6-diamino-2-[(3-chlorophenyl)carbamoyl]-5-cyanothieno[2,3-b]pyridin-4-yl}phenyl)piperazine-1-carboxylate]	104 ± 14.1	111 ± 12.1		48.3 ± 18	5.4 ± 3.2			
Cc1cccc(-c2c(C#N)c(N)nc3sc(C(=O)NC(C)C)c(N)c23)c1 [Compound 9l, 3,6-Diamino-5-cyano-N-isopropyl-4-(3-methylphenyl)thieno[2,3-b]pyridine-2-carboxamide]	70.6 ± 23	54.1 ± 15.5		80.6 ± 22	79.8 ± 20.3			
N#Cc1c(N)nc2sc(C(=O)Nc3ccc(F)cc3)c(N)c2c1-c1ccc(N2CCCC2)cc1Cl [Compound 9aa, 3,6-Diamino-4-[2-chloro-4-(pyrrolidin-1-yl)phenyl]-5-cyano-N-(4-fluorophenyl)thieno[2,3-b]pyridine-2-carboxamide]	74 ± 8.6	101 ± 3.7		61.8 ± 27.7	5.3 ± 2.6			
Cc1cc(-c2ccc(N3CCN(C(=O)OC(C)(C)C)CC3)cc2Cl)c2c(N)c(C(=O)Nc3ccc(Cl)cc3)sc2n1 [Compound 17l, tert-Butyl 4-(4-{3-amino-2-[(4-chlorophenyl)carbamoyl]-6-methylthieno[2,3-b]pyridin-4-yl}-3-chloro-phenyl)piperazine-1-carboxylate]	68.4 ± 24.3	103 ± 12.9		25.5 ± 14.4	1 ± 6.9	>100	55.5	two-digit nanomolar range
N#Cc1c(N)nc2sc(C(=O)Nc3ccc(Cl)cc3)c(N)c2c1-c1cccc(Cl)c1 [Compound 9a, 3,6-Diamino-4-(3-chlorophenyl)-N-(4-chlorophenyl)-5-cyanothieno[2,3-b]pyridine-2-carboxamide]	123 ± 8.4	80.3 ± 18.2		23.1 ± 10.8	3.7 ± 3.6	>70	410	
CCCCCCCNC(=O)c1sc2nc(N)c(C#N)c(-c3cccc(C)c3)c2c1N [Compound 9k, 3,6-Diamino-5-cyano-N-heptyl-4-(3-methylphenyl)thieno[2,3-b]pyridine-2-carboxamide]	54.3 ± 19.1	84.7 ± 10.6		72.7 ± 28.2	84 ± 27			
CN(CCN)c1ccc(-c2c(C#N)c(N)nc3sc(C(=O)Nc4cccc(Cl)c4)c(N)c23)c(Cl)c1 [Compound 9ae, 3,6-Diamino-4-{4-[(2-aminoethyl)(methyl)amino]-2-chlorophenyl}-N-(3-chlorophenyl)-5-cyanothieno-[2,3-b]pyridine-2-carboxamide hydrochloride]	-8.5 ± 7.4	101 ± 20.2		1.7 ± 4.2	2.7 ± 7.8			
N#Cc1c(N)nc2sc(C(=O)Nc3ccccc3Cl)c(N)c2c1-c1ccc(N2CCCC2)cc1Cl [Compound 9t, 3,6-Diamino-4-[2-chloro-4-(pyrrolidin-1-yl)phenyl]-N-(2-chlorophenyl)-5-cyanothieno[2,3-b]pyridine-2-carboxamide]	99 ± 22.6	105 ± 6.6		68.9 ± 27.3	60.6 ± 23.7			
CN(C)CCN(C)c1ccc(-c2c(C#N)c(N)nc3sc(C(=O)Nc4cccc(Cl)c4)c(N)c23)c(Cl)c1 [Compound 9af, 3,6-Diamino-4-(2-chloro-4-{[2-(dimethylamino)ethyl](methyl)amino}phenyl)-N-(3-chlorophenyl)-5-cyanothieno[2,3-b]pyridine-2-carboxamide]	-7.4 ± 6.4	107 ± 11.2		5.8 ± 4.7	4.5 ± 7.4			
N#Cc1c(N)nc2sc(C(=O)Nc3ccc(F)cc3)c(N)c2c1-c1ccc(N2CCOCC2)cc1Cl [Compound 9x, 3,6-Diamino-4-(2-chloro-4-morpholinophenyl)-5-cyano-N-(4-fluorophenyl)thieno[2,3-b]pyridine-2-carboxamide]	86.1 ± 16	90.2 ± 8.9		59 ± 43.6	8.7 ± 6.6			
N#Cc1c(N)nc2sc(C(=O)Nc3ccc(F)cc3)c(N)c2c1-c1cccc(F)c1 [Compound 9i, 3,6-Diamino-5-cyano-4-(3-fluorophenyl)-N-(4-fluorophenyl)thieno[2,3-b]pyridine-2-carboxamide]	< 50	70.9 ± 19.8		65.8 ± 24.6	6.1 ± 4.9			
N#Cc1c(N)nc2sc(C(=O)Nc3ccc(F)cc3)c(N)c2c1-c1cccc(Cl)c1 [Compound 9d, 3,6-Diamino-4-(3-chlorophenyl)-5-cyano-N-(4-fluorophenyl)thieno[2,3-b]pyridine-2-carboxamide]	83 ± 21.6	69.7 ± 16.6		88.5 ± 17.6	3.5 ± 3.5			
Cc1cccc(-c2c(C#N)c(N)nc3sc(C(=O)Nc4ccccc4Cl)c(N)c23)c1 [Compound 9f, 3,6-Diamino-N-(2-chlorophenyl)-5-cyano-4-(3-methylphenyl)thieno[2,3-b]pyridine-2-carboxamide]	93.6 ± 29.9	90.9 ± 14.2		80.2 ± 20.3	51.6 ± 15.7			
Cc1cccc(-c2c(C#N)c(N)nc3sc(C(=O)Nc4ccc(F)cc4)c(N)c23)c1 [Compound 9g, 3,6-Diamino-5-cyano-N-(4-fluorophenyl)-4-(3-methylphenyl)thieno[2,3-b]pyridine-2-carboxamide]	67.8 ± 8.1	74.8 ± 21.7		63.8 ± 16.5	3.1 ± 2.7			
N#Cc1c(N)nc2sc(C(=O)Nc3ccccc3Cl)c(N)c2c1-c1cccc(Cl)c1 [Compound 9c, 3,6-Diamino-N-(2-chlorophenyl)-4-(3-chlorophenyl)-5-cyanothieno[2,3-b]pyridine-2-carboxamide]	99.3 ± 5.3	99 ± 14.1		69.2 ± 26	40 ± 15.9			
N#Cc1c(N)nc2sc(C(=O)Nc3cccc(Cl)c3)c(N)c2c1-c1ccc(N2CCOCC2)cc1Cl [Compound 9r, 3,6-Diamino-4-(2-chloro-4-morpholinophenyl)-N-(3-chlorophenyl)-5-cyanothieno[2,3-b]pyridine-2carboxamide]	105 ± 10	108 ± 16.5		45.7 ± 17.2	2.8 ± 3.6			
Cc1cccc(-c2c(C(=O)OC(C)(C)C)c(C)nc3sc(C(=O)Nc4ccc(Cl)cc4)c(N)c23)c1 [Compound 17h, tert-Butyl 3-amino-2-[(4-chlorophenyl)carbamoyl]-6-methyl-4-(3-methylphenyl)thieno[2,3-b]pyridine-5-carboxylate]	< 50	106 ± 5.3		11.8 ± 12.3	2.3 ± 14.5			
N#Cc1c(N)nc2sc(C(=O)Nc3cccc(Cl)c3)c(N)c2c1-c1ccc(N2CCCC2)cc1Cl [Compound 9s, 3,6-Diamino-4-[2-chloro-4-(pyrrolidin-1-yl)phenyl]-N-(3-chlorophenyl)-5-cyanothieno[2,3-b]pyridine-2-carboxamide]	114 ± 40.3	113 ± 15.9		78.3 ± 15.2	4.8 ± 5			
Cc1cccc(-c2c(C#N)c(N)nc3sc(C(=O)NCCC4CC4)c(N)c23)c1 [Compound 9o, 3,6-Diamino-5-cyano-N-(2-cyclopropylethyl)-4-(3-methylphenyl)thieno[2,3-b]pyridine-2-carboxamide]		60 ± 11.2		62.5 ± 23.5	40.8 ± 14.3			
Nc1c(C(=O)Nc2ccc(Cl)cc2)sc2nc3c(c(-c4ccccc4)c12)CCCC3 [Compound 17d, 3-Amino-N-(4-chlorophenyl)-4-phenyl-5,6,7,8-tetrahydrothieno[2,3-b]quinoline-2-carboxamide]		106 ± 10.6		6.2 ± 5.7	8.4 ± 17.5			

Source: paper PMC7397174, “4-Arylthieno[2,3-b]pyridine-2-carboxamides Are a New Class of Antiplasmodial Agents” (Molecules, 2020)
